Measurements: patent publication US6342508B1, “N-hydroxy-2-(Alkyl,Aryl or Heteroaryl sulfanyl, sulfinyl or sulfonyl) 3-substituted alkyl, aryl or heteroarylamides as matrix metalloproteinase inhibitors” (American Cyanamid Company, priority 1997, dated 2002)
Counter-ions that a name gives are not always drawn.

target: T1, TACE (Homo sapiens, UniProt P78536); assay: Procedure for Measuring TACE Inhibition (fluorescent peptidyl substrate); format: biochemical; conditions: 1 mM
T1 construct: purchased Immunex
Method: Using 96-well black microtiter plates, each well recieves a solution composed of 10 μL TACE (Immunex, final concentration 1 μg/mL), 70 μL Tris buffer, pH 7.4 containing 10% glycerol (final concentration 10 mM), and 10 μL of test compound solution in DMSO (final concentration, DMSO concentration <1%) and incubated for 10 minutes at room temperature. The reaction is initiated by addition of a fluorescent peptidyl substrate (final concentration 100 μM) to each well and then shaking on a shaker for 5 sec. The reaction is read (excitation 340 nm, emission 420 nm) for 10 min. and the increase in fluorescence over time is plotted as a linear line. The slope of the line is calculated and represents the reaction rate. […] The mean (x±sem) of the control rate is calculated and compared for statistical significance (p<0.05) with drug-treated rates using Dunnett's multiple comparison test.

T1 sequence (P78536 215-824): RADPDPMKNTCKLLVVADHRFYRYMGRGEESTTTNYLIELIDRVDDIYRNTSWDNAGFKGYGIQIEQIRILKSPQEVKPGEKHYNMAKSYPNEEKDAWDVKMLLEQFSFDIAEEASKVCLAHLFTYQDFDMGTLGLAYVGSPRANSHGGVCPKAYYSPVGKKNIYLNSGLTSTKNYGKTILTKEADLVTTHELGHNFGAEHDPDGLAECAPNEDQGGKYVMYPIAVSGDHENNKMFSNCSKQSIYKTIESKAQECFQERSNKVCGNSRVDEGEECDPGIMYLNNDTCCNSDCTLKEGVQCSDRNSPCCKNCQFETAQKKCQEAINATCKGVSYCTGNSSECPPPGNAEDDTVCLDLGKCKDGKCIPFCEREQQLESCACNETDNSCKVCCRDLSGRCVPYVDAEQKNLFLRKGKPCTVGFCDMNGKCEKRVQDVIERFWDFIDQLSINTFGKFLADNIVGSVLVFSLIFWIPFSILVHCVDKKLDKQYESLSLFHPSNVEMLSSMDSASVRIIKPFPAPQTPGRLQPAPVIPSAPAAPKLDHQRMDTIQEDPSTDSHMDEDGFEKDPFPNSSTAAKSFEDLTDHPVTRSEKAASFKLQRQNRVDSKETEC

| Compound | TACE % inhibition at 1 mM [%] |
| --- | --- |
| CCCCCCC(C(=O)NO)[S+]([O-])c1ccc(NS(=O)(=O)c2cc(Cl)sc2Cl)cc1 (stereo not shown) [Example 236, 2,5-Dichloro-thiophene-3-sulfonic acid 4-(1-hydroxycarbamoyl-heptylsulfinyl)-hydroxyamide] | 35 |
| (1-Hydroxycarbamoyl-propane-1-sulfonyl)-acetic acid hydroxyamide [Example 120] | 19.9 |
| (1-Hydroxycarbamoyl-propane-1-sulfinyl)-acetic acid hydroxy amide [Example 121] | 6.1 |
| CCCCCCC(Sc1ccc(NS(=O)(=O)CC)cc1)C(=O)NO (stereo not shown) [Example 234, Ethanesulfonic acid 4(1-hydroxycarbamoyl-heptylsulfanyl)-hydroxyamide] | 18.4 |
| 3-(1-Hydroxycarbamoyl-heptylsulfinyl)-benzoicacid hydroxyamide [Example 188] | 16.2 |
| (1-Hydroxycarbamoyl-propane-1-sulfanyl)-propionic acid hydroxyamide [Example 122] | 3.1 |
| CCCCCCC(Sc1ccc(OCCCC)cc1)C(=O)NO (stereo not shown) [Example 200, 2-(4-Butoxy-benzenesulfanyl)-octanoic acid hydroxyamide] | 37.9 |

test system: not given; assay: not given; conditions: not given

| melting point [°C] | Compound |
| --- | --- |
| 206 | COc1ccc(CCN2CCC(C(=O)NO)(S(=O)(=O)c3ccc(OC)cc3)CC2)cc1 (as salt: HCl) [Example 102, 4-(4-methoxy-benzenesulfonyl)-1-[2-(4-methoxyphenyl)-ethyl]-piperidine-4-carboxylic acid hydroxyamide] |
| 185 to 187 | COc1ccc(S(=O)(=O)C(C)(Cc2ccc3ccccc3c2)C(=O)NO)cc1 (stereo not shown) [Example 52, N-hydroxy-2-(4-methoxy-benzenesulfonyl)-2-methyl-3-naphthalen-2-yl-propionamide] |
| 58 | COc1ccc(S(=O)(=O)C(C)(CC2CCCCC2)C(=O)NO)cc1 (stereo not shown) [Example 16, 3-Cyclohexyl-N-hydroxy-2-(4-methoxy-benzenesulfonyl)-2-methyl-propionamide] |
| 85 | CCCC(Cc1ccc(OCCN2CCCCCC2)cc1)(C(=O)NO)S(=O)(=O)c1ccc(OC)cc1 (stereo not shown) [Example 19, 2-[4-(2-Azepan-1-yl-ethoxy)-benzyl]-2-(4-methoxy-benzenesulfonyl)-pentanoic acid hydroxyamide] |
| 57 to 60 | COc1ccc(S(=O)(=O)C(Cc2cccnc2)(CC2CCCCC2)C(=O)NO)cc1 (stereo not shown) (as salt: hydrochloride) [Example 65, 3-Cyclohexyl-N-hydroxy-2-(4-methoxy-benzenesulfonyl)2-pyridin-3-ylmethyl-propionamide] |
| 75 | CCCCN1CCC(C(=O)NO)(S(=O)(=O)c2ccc(OC)cc2)CC1 [Example 93, 1-Butyl-4-(4-methoxy-benzenesulfonyl)-piperidine-4-carboxylic acid hydroxyamide] |
| 180 to 182 | CCCCCC#CCC(Cc1cccnc1)(C(=O)NO)S(=O)(=O)c1ccc(F)cc1 (stereo not shown) (as salt: salt) [Example 77, 2-(4-Fluoro-benzenesulfonyl)-2-pyridin-3-ylmethyl-dec-4-ynoic acid hydroxyamide] |
| 90 to 95 | CCCCCC(Sc1ccc(OC)cc1)C(=O)NO (stereo not shown) [Example 80, 2-(4methoxy-phenylsulfanyl)-heptanoic acid hydroxyamide] |
| 98 | COc1ccc(S(=O)(=O)C(C)(Cc2cccnc2)C(=O)NO)cc1 (stereo not shown) [Example 61, N-hydroxy-2-(4-methoxy-benzenesulfonyl)-2-methyl-3-pyridin-3-yl-propionamide] |
| 119 to 121 | C#CCC(Cc1cccnc1)(C(=O)NO)S(=O)(=O)c1ccc(OC)cc1 (stereo not shown) [Example 75, 2-(4-Methoxy-benzenesulfonyl)-2-pyridin-3-ylmethyl-pent-4-ynoic acid hydroxyamide] |
| 58 | COc1ccc(S(=O)(=O)C(C)(Cc2ccccc2)C(=O)NO)cc1 (stereo not shown) [Example 12, N-Hydroxy-2-(4-methoxy-benzenesulfonyl)-2-methyl-3-phenyl-propionamide] |
| 190 | CC#CCC(Cc1cccnc1)(C(=O)NO)S(=O)(=O)c1ccc(F)cc1 (stereo not shown) (as salt: salt) [Example 76, 2-(4-Fluoro-benzenesulfonyl)-2-pyridin-3-ylmethyl-hex-4-ynoic acid hydroxyamide] |
| 175 | COc1ccc(CN2CCC(C(=O)NO)(S(=O)(=O)c3ccc(OC)cc3)CC2)cc1 (as salt: HCl) [Example 101, 4-(4-methoxy-benzenesulfonyl)-1-(4-methoxy-benzyl)-piperidine-4-carboxylic acid hydroxyamide] |
| 98 | COc1ccc(S(=O)(=O)C(C)(Cc2ccc(OCCN3CCOCC3)cc2)C(=O)NO)cc1 (stereo not shown) (as salt: hydrochloride) [Example 82, 2-(4-methoxy-benzenesulfonyl)-2-methyl-3-[4-(2-mopholinyl-ethoxy)-phenyl]-propionic hydroxyamide hydrochloride] |
| 63 | COc1ccc(S(=O)(=O)C(C)(Cc2cccc(OCCN3CCOCC3)c2)C(=O)NO)cc1 (stereo not shown) [Example 30, N-Hydroxy-2-(4-methoxy-benzenesulfonyl)-2-methyl-3-[3-(2-morpholin-1-yl-ethoxy)-phenyl]-propionamide] |
| 114 to 116 | C=CCC(CC=C)(C(=O)NO)S(=O)(=O)c1ccc(OC)cc1 [Example 58, 2-allyl-2-(4-methoxy-benzenesulfonyl)-pent-4-enoic acid hydroxyamide] |

| melting point [°C] | Compound |
| --- | --- |
| 119 | COc1ccc(SC(C(=O)NO)C(C)C)cc1 (stereo not shown) [Example 4, N-Hydroxy-2-(4methoxy-phenylsulfanyl)-3-methyl-butyramide] |
| 83 to 84 | CCCCCC#CCC(CC#CCCCCC)(C(=O)NO)S(=O)(=O)c1ccc(OC)cc1 [Example 71, 2-(4-methoxy-benzenesulfonyl)-2-oct-2-ynyl-dec-4-ynoic acid hydroxyamide] |
| 68 | COc1ccc(S(=O)(=O)C(C)(Cc2ccc(OCCN3CCCCCC3)cc2)C(=O)NO)cc1 (stereo not shown) [Example 18] |
| 51 | CCC(Cc1ccc(OCCN2CCOCC2)cc1)(C(=O)NO)S(=O)(=O)c1ccc(OC)cc1 (stereo not shown) [Example 33, N-Hydroxy-2-(4-methoxy-benzenesulfonyl)-2-[4-(2-morpholin-4yl-ethoxy)-benzyl]-butyramide] |
| 141 to 143 | CC#CCC(CC#CC)(C(=O)NO)S(=O)(=O)c1ccc(OC)cc1 [Example 72, 2-(4-Methoxy-benzenesulfonyl)-2-but-2-ynyl-hex-4-ynoic acid hydroxyamide] |
| 177 | COc1ccc(S(=O)(=O)C(C)(Cc2ccc(-c3ccccc3)cc2)C(=O)NO)cc1 (stereo not shown) [Example 14, 3-(Biphenyl-4-yl)-N-hydroxy-2-(4-methoxy-benzenesulfonyl)-2-methyl-propionamide] |
| 58 | CCCCCCC(Sc1ccc(F)cc1)C(=O)NO (stereo not shown) [Example 38, 2-(4-Fluoro-phenylsulfanyl)-octanoic acid hydroxyamide] |
| 89 | COc1ccc(SC(C)(CC=C(C)C)C(=O)NO)cc1 (stereo not shown) [Example 3, 2-(4-Methoxy-phenylsulfanyl)-2,5-dimethyl-hex-4-enoic acid hydroxyamide] |
| 220 | COc1ccc(S(=O)(=O)C(C(=O)NO)C(C)C)cc1 (stereo not shown) [Example 53, N-Hydroxy-2-(4methoxy-benzenesulfonyl)-3-methyl-butyramide] |
| 86 to 88 | COc1ccc(S(=O)(=O)C(C)(Cc2ccc(Br)cc2)C(=O)NO)cc1 (stereo not shown) [Example 51, 3-(4-Bromo-phenyl)-N-hydroxy-2-(4-methoxy-benzenesulfonyl)-2-methyl-propionamide] |
| 118 to 120 | COc1ccc(S(=O)(=O)C(CCCc2ccccc2)(CCCc2ccccc2)C(=O)NO)cc1 [Example 57, 2-(4methoxy-benzenesulfonyl)-5phenyl-2-(3-phenyl-propyl)-pentanoic acid hydroxyamide] |
| 62 | COc1ccc(S(=O)(=O)C(CCC(C)C)(Cc2cccnc2)C(=O)NO)cc1 (stereo not shown) (as salt: HCl) [Example 69, 2-(4-Methoxy-benzenesulfonyl)-5-methyl-2-pyridin-3-ylmethyl-hexanoic acid hydroxyamide] |
| 65 | CCCCCC#CCC(Cc1cccnc1)(C(=O)NO)S(=O)(=O)c1ccc(OC)cc1 (stereo not shown) (as salt: salt) [Example 74, 2-(4-Methoxy-benzenesulfonyl)-2-pyridin-3-ylmethyl-dec-4-ynoic acid hydroxyamide] |
| 89 to 92 | COc1ccc(S(=O)(=O)C(CC=C(C)C)(Cc2cccnc2)C(=O)NO)cc1 (stereo not shown) [Example 63, 2-(4-Methoxy-benzenesulfonyl)-5-methyl-2-pyridin-3-ylmethyl-hex-4-enoic acid hydroxyamide] |
| 155 | COc1ccc(SC(C(=O)NO)c2ccccc2)cc1 (stereo not shown) [Example 2, N-Hydroxy-2-(4-methoxy-phenylsulfanyl)-2-phenyl-acetamide] |
| 75 | CCC(Cc1ccc(OCCN2CCCCC2)cc1)(C(=O)NO)S(=O)(=O)c1ccc(OC)cc1 (stereo not shown) [Example 34, N-Hydroxy-2-(4-methoxy-benzenesulfonyl)-2-[4-(2-piperdin-1-yl-ethoxy)-benzyl]-butyramide] |

| Compound | melting point [°C] |
| --- | --- |
| CCCCOc1ccc(S(=O)(=O)C2(C(=O)NO)CCN(Cc3ccc(OC)cc3)CC2)cc1 (as salt: HCl) [Example 104, 4-(4-n-Butoxy-benzenesulfonyl)-1-(4-methoxy-benzyl)-piperidine-4-carboxylic acid hydroxyamide] | 173 |
